In this assay the target is human full-length MKNK1 (Homo sapiens (Human), UniProt Q9BUB5, T344D). The assay is described as follows: MKNK1 kinase high ATP assay (TR-FRET). The format is biochemical. As to conditions: 2 mM ATP, 15 min preincubation with enzyme, GST-MKNK1 (T344D). The procedure, abridged: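 GST-tagged full-length human MKNK1 (1-424, T344D, baculovirus-expressed) preincubated 15 min at 22 °C with compound, then reacted 30 min at 22 °C with 2 mM ATP and 0.06 μM biotinylated peptide (final) in HEPES pH 7.5. Phospho-substrate by TR-FRET (665/622 nm ratio), normalised to no-inhibitor and no-enzyme controls.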

pIC50: −log10 of the molar value. Structures can show the parent of a compound that is named as a salt.

Sequence of human full-length MKNK1 (Q9BUB5 other isoform, or with tags, fused parts or gaps T344D): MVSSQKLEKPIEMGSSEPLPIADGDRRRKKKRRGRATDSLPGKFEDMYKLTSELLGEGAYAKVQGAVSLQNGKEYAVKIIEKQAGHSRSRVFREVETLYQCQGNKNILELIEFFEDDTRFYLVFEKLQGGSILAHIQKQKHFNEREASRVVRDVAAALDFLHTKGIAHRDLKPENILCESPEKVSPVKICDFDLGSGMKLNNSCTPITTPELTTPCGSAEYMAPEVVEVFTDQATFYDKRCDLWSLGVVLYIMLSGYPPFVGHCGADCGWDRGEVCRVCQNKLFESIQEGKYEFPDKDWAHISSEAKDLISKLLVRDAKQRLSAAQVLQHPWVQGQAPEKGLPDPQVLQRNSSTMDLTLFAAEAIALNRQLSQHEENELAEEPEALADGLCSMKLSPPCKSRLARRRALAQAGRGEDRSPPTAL

What is called pIC50 is the negative decadic logarithm of the IC50, by convention in mol/L. Low values mean a high IC50, high ones a low IC50. Take `CC(=O)N1Cc2ncnc(Nc3cc(C)c4n(c3=O)C3(CCCCC3)NC4=O)c2C1` [Example 78, 6′-[(6-Acetyl-6,7-dihydro-5H-pyrrolo[3,4-d]pyrimidin-4-yl)amino]-8′-methyl-2′H-spiro[cyclohexane-1,3′-imidazo[1,5-a]pyridine]-1′,5′-dione]: the negative-log IC50 (pIC50) was 7.42.

In turn, `Cc1cc(Nc2ncnc3sc(C(=O)N4CC(N)C4)cc23)c(=O)n2c1C(=O)NC21CCCC1` [Example 74, 6′-({6-[(3-Aminoazetidin-1-yl)carbonyl]thieno[2,3-d]pyrimidin-4-yl}amino)-8′-methyl-2′H-spiro[cyclopentane-1,3′-imidazo[1,5-a]pyridine]-1′,5′-dione] gave a pIC50 of 8.82.

`Cc1ccc2ncnc(Nc3cc(C)c4n(c3=O)C3(CCCCC3)NC4=O)c2c1` [Example 122, 8′-Methyl-6′-[(6-methylquinazolin-4-yl)amino]-2′H-spiro[cyclohexane-1,3′-imidazo[1,5-a]pyridine]-1′,5′-dione] gave a pIC50 of 7.88.

The molecule `Cc1cc(Nc2ncnc3sccc23)c(=O)n2c1C(=O)NC21CSC1` [Example 177, 8-methyl-6-[(thieno[2,3-d]pyrimidin-4-yl)amino]-2H-spiro[imidazo[1,5-a]pyridine-3,3′-thietane]-1,5-dione] showed a pIC50 of 8.37.

The molecule `Cc1cc(Nc2ncnc3ccc(Cl)cc23)c(=O)n2c1C(=O)NC21CCC1` [Example 167, 6′-[(6-Chloroquinazolin-4-yl)amino]-8′-methyl-2′H-spiro[cyclobutane-1,3′-imidazo[1,5-a]pyridine]-1′,5′-dione] gave a pIC50 of 8.24.

`Cc1cc(Nc2ncnc3sc(C(=O)N(C)C)cc23)c(=O)n2c1C(=O)NC21CCCCC1` [Example 10, N,N-Dimethyl-4-[(8′-methyl-1′,5′-dioxo-1′,5′-dihydro-2′H-spiro[cyclohexane-1,3′-imidazo[1,5-a]pyridin]-6′-yl)amino]thieno[2,3-d]pyrimidine-6-carboxamide] had a pIC50 of 7.77.

The molecule `Cc1cc(Nc2ncnc3c2ncn3[C@H]2O[C@@H](CO)[C@H](O)[C@H]2O)c(=O)n2c1C(=O)NC21CCCCC1` [Example 47, N-[9-(beta-L-Arabinofuranosyl)-9H-purin-6-yl]-8′-methyl-1′,5′-dioxo-1′,5′-dihydro-2′H-spiro[cyclohexane-1,3′-imidazo[1,5-a]pyridin]-6′-amine] had a negative logarithm of the IC50 (pIC50) of 7.33.

Consider `Cc1cc(Nc2ncnc3sc(C(=O)N4CCC(N(C)C)CC4)cc23)c(=O)n2c1C(=O)NC21CCCCC1` [Example 14, 6′-[(6-{[4-(Dimethylamino)piperidin-1-yl]carbonyl}thieno[2,3-d]pyrimidin-4-yl)amino]-8′-methyl-2′H-spiro[cyclohexane-1,3′-imidazo[1,5-a]pyridine]-1′,5′-dione], for which the pIC50 was 8.39.

Regarding `COCCN(C)C(=O)c1cc2c(Nc3cc(C)c4n(c3=O)C3(CCCCC3)NC4=O)ncnc2s1` [Example 11, N-(2-Methoxyethy)-N-methyl-4-[(8′-methyl-1′,5′-dioxo-1′,5′-dihydro-2′H-spiro[cyclohexane-1,3′-imidazo[1,5-a]pyridin]-6′-yl)amino]thieno[2,3-d]pyrimidine-6-carboxamide], the pIC50 was 7.43.

As for `Cc1cc(Nc2ncnc3sc(C(=O)O)cc23)c(=O)n2c1C(=O)NC21CCC(F)(F)CC1` [Example 80, 4-[(4,4-Difluoro-8′-methyl-1′,5′-dioxo-1′,5′-dihydro-2′H-spiro[cyclohexane-1,3′-imidazo[1,5-a]pyridin]-6′-yl)amino]thieno[2,3-d]pyrimidine-6-carboxylic acid], the negative logarithm of the IC50 (pIC50) is 6.90.

`Cc1cc(Nc2ncnc3sccc23)c(=O)n2c1C(=O)NC21CCC1` [Example 149, 8′-Methyl-6′-(thieno[2,3-d]pyrimidin-4-ylamino)-2′H-spiro[cyclobutane-1,3′-imidazo[1,5-a]pyridine]-1′,5′-dione] gave a pIC50 of 8.64.

Turning to `Cc1cc(Nc2ncnc3sc(C(=O)O)c(C)c23)c(=O)n2c1C(=O)NC21CCCCC1` [Example 15, 5-Methyl-4-[(8′-methyl-1′,5′-dioxo-1′,5′-dihydro-2′H-spiro[cyclohexane-1,3′-imidazo[1,5-a]pyridin]-6′-yl)amino]thieno[2,3-d]pyrimidine-6-carboxylic acid], the negative logarithm of the IC50 (pIC50) is 7.67.

On to `Cc1cc(Nc2ncnc3c2ncn3CCO)c(=O)n2c1C(=O)NC21CCCCC1` [Example 44, 6′-{[9-(2-Hydroxyethyl)-9H-purin-6-yl]amino}-8′-methyl-2′H-spiro[cyclohexane-1,3′-imidazo[1,5-a]pyridine]-1′,5′-dione], for which the pIC50 is 6.33.

With `Cc1cc(Nc2ncnc3c(C)cccc23)c(=O)n2c1C(=O)NC21CCCCC1` [Example 120, 8′-methyl-6′-[(8-methylquinazolin-4-yl)amino]-2′H-spiro[cyclohexane-1,3′-imidazo[1,5-a]pyridine]-1′,5′-dione], the pIC50 was below 4.70.

`Cc1ccc2c(Nc3cc(C)c4n(c3=O)C3(CCCCC3)NC4=O)ncnc2c1` [Example 121, 8′-Methyl-6′-[(7-methylquinazolin-4-yl)amino]-2′H-spiro[cyclohexane-1,3′-imidazo[1,5-a]pyridine]-1′,5′-dione] had a negative-log IC50 (pIC50) of 8.15.

In turn, `Cc1cc(Nc2ncnc3ccccc23)c(=O)n2c1C(=O)NC21CCC1` [Example 172, 8′-methyl-6′-[(quinazolin-4-yl)amino]-2′H-spiro[cyclobutane-1,3′-imidazo[1,5-a]pyridine]-1′,5′-dione] showed a pIC50 of 7.92.

`Cc1cc(Nc2ncnc3c2CNC3)c(=O)n2c1C(=O)NC21CCCC1` [Example 126, 6′-(6,7-Dihydro-5H-pyrrolo[3,4-d]pyrimidin-4-ylamino)-8′-methyl-2′H-spiro[cyclopentane-1,3′-imidazo[1,5-a]pyridine]-1′,5′-dione]: the pIC50 was 7.69.

On to `Cc1cc(Nc2ncnc3sc(C(=O)N4CC[C@H](N(C)C)C4)cc23)c(=O)n2c1C(=O)NC21CCCCC1` [Example 30, 6′-[(6-{[(3S)-3-(Dimethylamino)pyrrolidin-1-yl]carbonyl}thieno[2,3-d]pyrimidin-4-yl)amino]-8′-methyl-2′H-spiro[cyclohexane-1,3′-imidazo[1,5-a]pyridine]-1′,5′-dione], for which the pIC50 is 8.49.

`Cc1cc(Nc2ncnc3sc(C(=O)N4C[C@H]5C[C@@H]4CO5)cc23)c(=O)n2c1C(=O)NC2(C)C` [Example 144, 3,3,8-Trimethyl-6-({6-[(1R,4R)-2-oxa-5-azabicyclo[2.2.1]hept-5-ylcarbonyl]thieno[2,3-d]pyrimidin-4-yl}amino)-2,3-dihydroimidazo[1,5-a]pyridine-1,5-dione] gave a pIC50 of 7.89. Against the preceding molecule, the pIC50 is 0.60 log units lower.

On to `Cc1cc(Nc2ncnc(N)n2)c(=O)n2c1C(=O)NC21CCC1` [Example 147, 6′-[(4-Amino-1,3,5-triazin-2-yl)amino]-8′-methyl-2′H-spiro[cyclobutane-1,3′-imidazo[1,5-a]pyridine]-1′,5′-dione], for which the pIC50 was 7.90.

For `Cc1cc(Nc2ncnc3[nH]ccc23)c(=O)n2c1C(=O)NC21CCCCC1` [Example 6, 8′-Methyl-6′-(7H-pyrrolo[2,3-d]pyrimidin-4-ylamino)-2′H-spiro[cyclohexane-1,3′-imidazo[1,5-a]pyridine]-1′,5′-dione], the pIC50 was 9.52.

In turn, `CCCNC(=O)Nc1nccc(Nc2cc(C)c3n(c2=O)C2(CCCCC2)NC3=O)n1` [Example 23, 1-{4-[(8′-Methyl-1′,5′-dioxo-1′,5′-dihydro-2′H-spiro[cyclohexane-1,3′-imidazo[1,5-a]pyridin]-6′-yl)amino]pyrimidin-2-yl}-3-propylurea] had a pIC50 of 6.47.

`Cc1cc(Nc2ncnc3sccc23)c(=O)n2c1C(=O)NC21CCCCC1` [Example 31, 8′-Methyl-6′-(thieno[2,3-d]pyrimidin-4-ylamino)-2′H-spiro[cyclohexane-1,3′-imidazo[1,5-a]pyridine]-1′,5′-dione hydrochloride] showed a pIC50 (hydrochloride) of 7.77.

As for `Cc1cc(Nc2ncnc3sc(C(=O)N4CCN(C)CC4)cc23)c(=O)n2c1C(=O)NC21CCCCC1` [Example 12, 8′-Methyl-6′-({6-[(4-methylpiperazin-1-yl)carbonyl]thieno[2,3-d]pyrimidin-4-yl}amino)-2′H-spiro[cyclohexane-1,3′-imidazo[1,5-a]pyridine]-1′,5′-dione], the pIC50 is 7.57.

`Cc1cc(Nc2ncnc(N)n2)c(=O)n2c1C(=O)NC21CCC(F)(F)CC1` [Example 94, 6′-[(4-Amino-1,3,5-triazin-2-yl)amino]-4,4-difluoro-8′-methyl-2′H-spiro[cyclohexane-1,3′-imidazo[1,5-a]pyridine]-1′,5′-dione] showed a pIC50 of 7.56.

`Cc1cc(Nc2ncnc3sc(C(=O)NCCN(C)C)cc23)c(=O)n2c1C(=O)NC21CCC1` [Example 151, N-[2-(Dimethylamino)ethyl]-4-[(8′-methyl-1′,5′-dioxo-1′,5′-dihydro-2′H-spiro[cyclobutane-1,3′-imidazo[1,5-a]pyridin]-6′-yl)amino]thieno[2,3-d]pyrimidine-6-carboxamide] had a pIC50 of 8.40.

The molecule `CCOC(=O)N1Cc2ncnc(Nc3cc(C)c4n(c3=O)C3(CCCCC3)NC4=O)c2C1` [Example 76, Ethyl 4-[(8′-methyl-1′,5′-dioxo-1′,5′-dihydro-2′H-spiro[cyclohexane-1,3′-imidazo[1,5-a]pyridin]-6′-yl)amino]-5,7-dihydro-6H-pyrrolo[3,4-d]pyrimidine-6-carboxylate] showed a pIC50 of 7.75.

Molecule `Cc1cc(Nc2ncnc3sc(C(=O)N4C[C@H]5C[C@@H]4CO5)cc23)c(=O)n2c1C(=O)NC21CCCC1` [Example 96, 8′-Methyl-6′-({6-[(1R,4R)-2-oxa-5-azabicyclo[2.2.1]hept-5-ylcarbonyl]thieno[2,3-d]pyrimidin-4-yl}amino)-2′H-spiro[cyclopentane-1,3′-imidazo[1,5-a]pyridine]-1′,5′-dione] had a pIC50 of 8.41.

(Values after US11311520B2, “Substituted dihydroimidazopyridinediones as MKNK1 and MKNK2 inhibitors” (Bayer Pharma Aktiengesellschaft, priority 2017, dated 2022).)
